From patent US10718770B2, “Methods for screening compounds for treating or preventing a viral infection or a virus-related condition” (ABIVAX, priority 2015, dated 2020)

Key:
Recombinant human CBC = molecular target: T1, Recombinant human CBC (Homo sapiens, UniProt P52298+Q09161); assay: Gel-mobility shift assay: binding of capped RNA to the CBC complex; details: native gel; Compound 1 5-50 μM, Compound 1-N-glucuronide 5-100 μM, m7GpppG 12 mM
T1 construct: made in house
T1 sequence (P52298 1-156): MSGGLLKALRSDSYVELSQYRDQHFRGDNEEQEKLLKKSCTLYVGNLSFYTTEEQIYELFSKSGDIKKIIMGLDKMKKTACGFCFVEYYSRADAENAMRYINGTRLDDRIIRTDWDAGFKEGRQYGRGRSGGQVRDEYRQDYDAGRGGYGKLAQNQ
T1 sequence (Q09161 1-790): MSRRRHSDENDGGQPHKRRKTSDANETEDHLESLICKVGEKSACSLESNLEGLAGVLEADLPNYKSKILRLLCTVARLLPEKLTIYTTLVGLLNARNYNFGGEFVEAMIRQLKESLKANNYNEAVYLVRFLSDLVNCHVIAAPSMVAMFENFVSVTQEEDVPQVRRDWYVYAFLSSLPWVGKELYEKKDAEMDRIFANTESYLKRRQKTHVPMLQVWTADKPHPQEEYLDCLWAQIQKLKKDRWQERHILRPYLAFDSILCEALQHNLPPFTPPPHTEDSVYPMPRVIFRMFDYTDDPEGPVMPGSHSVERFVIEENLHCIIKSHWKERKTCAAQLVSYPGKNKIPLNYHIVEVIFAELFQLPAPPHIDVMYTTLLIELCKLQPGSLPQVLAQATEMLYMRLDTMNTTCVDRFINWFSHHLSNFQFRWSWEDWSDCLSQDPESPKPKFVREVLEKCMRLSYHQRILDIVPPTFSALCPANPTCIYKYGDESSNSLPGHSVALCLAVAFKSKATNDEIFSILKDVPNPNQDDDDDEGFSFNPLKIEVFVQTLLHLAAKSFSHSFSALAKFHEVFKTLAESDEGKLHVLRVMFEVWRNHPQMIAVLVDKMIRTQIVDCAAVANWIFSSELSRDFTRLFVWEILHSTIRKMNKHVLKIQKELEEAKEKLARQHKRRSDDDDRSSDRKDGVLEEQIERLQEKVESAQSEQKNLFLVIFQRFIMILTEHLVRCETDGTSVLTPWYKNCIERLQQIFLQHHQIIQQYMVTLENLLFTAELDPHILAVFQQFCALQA
Experimental: FIG. 4. […] Recombinant human CBC was incubated with a capped RNA substrate and analyzed by native gel electrophoresis in order to resolve the different RNA and RNA-protein complexes: free RNA (lane 1), and CBC-RNA complexes (lanes 2-10) in the presence of 12 mM of m7GppG (lanes 10) or 5 μM, 10 μM or 50 μM of Compound 1 (lanes 2-4, respectively) or 5 μM, 10 μM, 50 μM or 100 μM of Compound 1-N-glucuronide ([…], respectively).
Gel-mobility shift assay in the presence of a m(7)GpppG cap analogue has been established according to the protocol described in Mazza et al. (Large-scale induced fit recognition of an m(7)GpppG cap analogue by the human nuclear cap-binding complex. EMBO J. 21, 5548-5557 (2002)).
Recombinant human CBC was incubated with a capped RNA substrate and analyzed by native gel electrophoresis in order to resolve the different RNA and RNA-protein complexes according to Mazza et al. (Large-scale induced fit recognition of an m(7)GpppG cap analogue by the human nuclear cap-binding complex. EMBO J. 21, 5548-5557 (2002).

[1] = molecular target: T2, CBC complex (CBP20 and CBP80) (Homo sapiens, UniProt P52298+Q09161); assay: UV crosslinking of purified recombinant CBP20 and CBP80 (CBC complex), SDS-PAGE / Western blot; format: binding; details: purified recombinant CBP20 and CBP80, after UV irradiation
T2 construct: made in house
T2 sequence (P52298 1-156): T1 sequence (P52298 1-156)
T2 sequence (Q09161 1-790): T1 sequence (Q09161 1-790)
Experimental: FIG. 2. Compound 1 interacts with the CBC complex. Purified recombinant CBP20 and CBP80 proteins were incubated with increasing concentrations of Compound 1 (left panel) or Compound 1-N-glucuronide (right panel, Gluc) and treated for 30 minutes with UV light. […] Left panel: from left to right, incubation with 0.1 (lane 1), 1 (lane 2), 10 (lane 3) and 50 μM (lane 4) of Compound 1. Right panel: from left to right, incubation with 1 (lane 1), 10 (lane 2), 50 (lane 3), 100 μM (lane 4) and 200 μM (lane 5) of Compound 1-N-glucuronide.
FIG. 3. Compound 1 promotes the interaction of CBP20 with CBP80. A) Purified recombinant CBP20 and CBP80 proteins were incubated with the indicated concentrations of Compound 1-N-glucuronide and they were either untreated (lanes 1-3), treated during 15 min (lanes 4-6) or 30 min (lanes 7-9) with UV light. Proteins were analyzed by SDS-PAGE and stained with Coomassie blue. […] B) Recombinant human CBC was incubated with Compound 1-N-glucuronide and treated with UV for 15 min. After crosslinking the proteins were resolved in SDS-PAGE and stained with Coomassie blue (left panel). Stained proteins (Band 4, Band 5 and Band 7) were digested with trypsin and analysed by mass spectrometry. […]

[2] = molecular target: SR protein splicing factor SRSF1 (Homo sapiens, UniProt Q07955); details: cited from earlier work
Sequence of SR protein splicing factor SRSF1 (Q07955 whole entry): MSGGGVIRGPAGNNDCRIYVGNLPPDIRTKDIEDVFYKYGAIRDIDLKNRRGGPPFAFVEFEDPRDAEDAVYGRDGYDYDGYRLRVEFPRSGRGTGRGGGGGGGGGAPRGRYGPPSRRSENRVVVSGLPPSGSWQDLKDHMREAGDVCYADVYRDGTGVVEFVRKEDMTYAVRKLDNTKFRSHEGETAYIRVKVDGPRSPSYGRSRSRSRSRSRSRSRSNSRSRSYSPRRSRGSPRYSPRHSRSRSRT

| SMILES | competition for binding of capped RNA to the CBC complex (Recombinant human CBC) | covalent bridging (UV crosslinking) between CBP20 and CBP80 [1] | production of key viral proteins ([2]; HIV-1) | splicing enhancer activity of SRSF1 [2] |
| --- | --- | --- | --- | --- |
| O=C(O)[C@H]1O[C@@H](N(c2ccc(OC(F)(F)F)cc2)c2ccc3cccc(Cl)c3n2)[C@H](O)[C@@H](O)[C@@H]1O [Compound 1-N-glucuronide, 8-chloro-N-glucuronide-N-(4-(trifluoromethoxy)phenyl)quinolin-2-amine] | neither Compound 1 nor Compound 1-N-glucuronide interfere | promote UV crosslinking of CBP20 and CBP80 |  |  |
| Cc1c2ccnc(Cl)c2cc2c3cn(C)ccc-3nc12 [IDC16, 10-chloro-2,6-dimethyl-2H-pyrido[3′,4′:4,5]pyrrolo[2,3-g]isoquinoline] |  |  | suppresses the production of key viral proteins | interfere with splicing enhancer activity |
| Cn1c[n+]([C@@H]2O[C@H](COP(=O)(O)OP(=O)([O-])OP(=O)(O)OC[C@H]3O[C@@H](n4cnc5c(=O)[nH]c(N)nc54)[C@H](O)[C@@H]3O)[C@@H](O)[C@H]2O)c2nc(N)[nH]c(=O)c21 [m^7GpppG, reference compound] | competed |  |  |  |
